Experimental data taken from ChEMBL document CHEMBL4184116, “New butenolide derivatives from the marine sponge-derived fungus Aspergillus terreus” (Bioorg Med Chem Lett, 2018).

Experiments:
Alpha glucosidase = Alpha glucosidase (Homo sapiens, UniProt O43451+P10253+P14410+Q2M2H8); assay: Inhibition of alpha-glucosidase (unknown origin) using p-nitro-phenyl-alpha-D-glucopyranoside as substrate preincubated for 5 mins with substrate followed by enzyme addition measure after 15 mins by spectrophotometric method; assay type: protein assay
[1] = Antioxidant activity assessed as DPPH radical scavenging activity incubated for 30 mins under dark condition by spectrophotometric analysis; assay type: functional
[2] = Antioxidant activity assessed as DPPH radical scavenging activity incubated for 30 mins under dark condition; assay type: functional

Work on COC(=O)[C@]1(Cc2ccc(O)cc2)OC(=O)C(O)=C1c1ccc(O)cc1 yielded an IC50 (Alpha glucosidase) of 85.13 µM and an IC50 [1] of 86 µM.
Work on COC(=O)[C@]1(Cc2ccc3c(c2)CCC(C)(C)O3)OC(=O)C(O)=C1c1ccc(O)cc1 yielded an IC50 (Alpha glucosidase) of 47.33 µM and an IC50 [1] of 97 µM.
COC(=O)[C@@]1(O)OC(=O)C(Cc2ccc3c(c2)CCC(C)(C)O3)=C1c1ccc(O)cc1 gave an IC50 (Alpha glucosidase) of 10.3 µM and an IC50 [1] greater than 200 µM.
For CC1(C)CCc2cc(CC3=C(c4ccc(O)cc4)[C@@](O)(C(=O)O)OC3=O)ccc2O1, the IC50 (Alpha glucosidase) was 7.63 µM and the IC50 [1] was greater than 200 µM.
In the case of CC1(C)CCc2cc(CC3OC(=O)C(O)=C3c3ccc(O)cc3)ccc2O1 (configuration not stated), the IC50 (Alpha glucosidase) is reported as 11.65 µM and the IC50 [1] is reported as 90 µM.
With CO[C@@H]1OC(=O)C(Cc2ccc(O)c(CC=C(C)C)c2)=C1c1ccc(O)cc1 the IC50 (Alpha glucosidase) was 9.98 µM and the IC50 [1] was greater than 200 µM.
With COC(=O)[C@]1(Cc2ccc(O)c(CC=C(C)C)c2)OC(=O)C(OC)=C1c1ccc(O)cc1 the IC50 [2] was 125 µM.
In the case of COC(=O)[C@]1(Cc2ccc3c(c2)C[C@H](O)C(C)(C)O3)OC(=O)C(OC)=C1c1ccc(O)cc1, the IC50 [2] is reported as greater than 500 µM.
With COC(=O)[C@]1(Cc2ccc3c(c2)C[C@@H](O)C(C)(C)O3)OC(=O)C(O)=C1c1ccc(O)cc1 the IC50 (Alpha glucosidase) was 110.27 µM and the IC50 [1] was 135 µM.
CC1(C)CCc2cc(CC3=C(c4ccc(O)cc4)C(O)OC3=O)ccc2O1 (configuration not stated) showed an IC50 (Alpha glucosidase) of 13.36 µM and an IC50 [1] greater than 200 µM.
CO[C@H]1OC(=O)C(Cc2ccc(O)c(CC=C(C)C)c2)=C1c1ccc(O)cc1 showed an IC50 (Alpha glucosidase) of 8.65 µM and an IC50 [1] greater than 200 µM.
Work on COC(=O)[C@]1(Cc2ccc(O)c(CC=C(C)C)c2)OC(=O)C(O)=C1c1ccc(O)cc1 yielded an IC50 (Alpha glucosidase) of 14.18 µM and an IC50 [1] of 38 µM.
CC(=O)N[C@@H](CS)C(=O)O [ACETYLCYSTEINE] showed an IC50 [1] of 85 µM.
With O=C1O/C(=C\c2ccc(O)cc2)C(O)=C1c1ccc(O)cc1 [ASPULVINONE E] the IC50 (Alpha glucosidase) was greater than 400 µM and the IC50 [1] was 106 µM.
Work on COC(=O)[C@]1(Cc2ccc3c(c2)C[C@H](C(C)(C)O)O3)OC(=O)C(O)=C1c1ccc(O)cc1 [BUTYROLACTONE IV] yielded an IC50 (Alpha glucosidase) greater than 400 µM and an IC50 [1] of 129 µM.
